In patent US6020366A, “Butyric acid matrix metalloproteinase inhibitors” (priority 1998, dated 2000):
Where two headings read alike, the source gives them in different places.

Key:
Assay type in all cases: biochemical
MMP-3 (stromelysin) = MMP-3 (stromelysin) (Homo sapiens, UniProt P08254); assay: inhibition of MMP-3 hydrolysis of thiopeptolide substrate
Description: The assays measure the amount by which a test compound reduces the hydrolysis of a thiopeptolide substrate caused by a matrix metalloproteinase enzyme. Such assays are described in detail by Ye, et al., in Biochemistry, 1992;31(45):11231-11235).
Thiopeptolide substrates show virtually no decomposition or hydrolysis in the absence of a matrix metalloproteinase enzyme. A typical thiopeptolide substrate commonly utilized for assays is Ac-Pro-Leu-Gly-thioester-Len-Len-Gly-O Et. […] Assays are carried out with and without matrix metalloproteinase inhibitor compounds, and the amount of hydrolysis is compared for a determination of inhibitory activity of the test compounds.
In the table, MMP-1 refers to interstitial collagenase; MMP-2 refers to Gelatinase A; MMP-3 refers to stromelysin; MMP-7 refers to matrilysin; and MMP-13 refers to Collagenase 3.

MMP-2 (Gelatinase A) = target: T1, MMP-2 (Gelatinase A) (Homo sapiens, UniProt P08253); assay: inhibition of MMP-2 hydrolysis of thiopeptolide substrate
T1 sequence (P08253 110-660): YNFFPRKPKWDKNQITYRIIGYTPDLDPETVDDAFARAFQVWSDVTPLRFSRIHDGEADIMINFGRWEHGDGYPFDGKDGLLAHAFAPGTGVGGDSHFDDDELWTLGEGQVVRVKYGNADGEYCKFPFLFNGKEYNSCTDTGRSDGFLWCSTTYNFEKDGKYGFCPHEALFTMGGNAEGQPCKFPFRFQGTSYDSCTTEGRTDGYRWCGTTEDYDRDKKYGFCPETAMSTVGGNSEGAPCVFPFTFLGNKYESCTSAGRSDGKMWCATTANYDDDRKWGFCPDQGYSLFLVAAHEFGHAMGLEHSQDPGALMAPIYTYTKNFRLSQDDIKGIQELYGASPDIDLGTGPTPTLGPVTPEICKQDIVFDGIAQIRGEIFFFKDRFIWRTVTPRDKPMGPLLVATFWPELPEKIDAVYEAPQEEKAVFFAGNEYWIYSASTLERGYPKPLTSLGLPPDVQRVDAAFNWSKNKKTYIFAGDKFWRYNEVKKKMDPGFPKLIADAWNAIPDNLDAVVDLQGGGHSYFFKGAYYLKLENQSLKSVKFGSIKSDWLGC

MMP-13 (Collagenase 3) = MMP-13 (Collagenase 3) (Homo sapiens, UniProt P45452); assay: inhibition of MMP-13 hydrolysis of thiopeptolide substrate
Description: The invention compounds have been evaluated in standard in vitro assays and shown to be potent inhibitors of several matrix metalloproteinase enzymes.

[1] = thiopeptolide substrate, pH 6.0, 22° C., read-out: (IC50) MMP-3
[2] = thiopeptolide substrate, pH 6.0, 22° C., read-out: (IC50) MMP-2
[3] = thiopeptolide substrate, pH 6.0, 22° C., read-out: (IC50) MMP-13

Chain of MMP-3 (stromelysin) (P08254 100-477): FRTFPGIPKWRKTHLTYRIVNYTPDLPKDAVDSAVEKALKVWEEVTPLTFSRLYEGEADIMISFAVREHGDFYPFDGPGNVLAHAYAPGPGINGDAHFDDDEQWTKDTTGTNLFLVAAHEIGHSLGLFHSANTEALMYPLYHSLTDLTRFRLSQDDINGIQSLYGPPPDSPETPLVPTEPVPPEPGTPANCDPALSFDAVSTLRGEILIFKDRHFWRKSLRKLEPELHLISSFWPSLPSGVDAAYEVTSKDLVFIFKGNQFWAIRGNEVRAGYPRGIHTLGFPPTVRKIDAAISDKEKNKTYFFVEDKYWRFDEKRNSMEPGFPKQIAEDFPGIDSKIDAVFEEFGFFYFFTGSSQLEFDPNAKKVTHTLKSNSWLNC

SMILES	IC50 (MMP-3 (stromelysin); [1]) [µM]	IC50 (MMP-2 (Gelatinase A); [2]) [nM]	IC50 (MMP-13 (Collagenase 3); [3]) [µM]	IC50 (MMP-3 (stromelysin)) [µM]	IC50 (MMP-2 (Gelatinase A)) [nM]	IC50 (MMP-13 (Collagenase 3)) [µM]
O=C(C[C@@H](NC(=O)C(F)(F)F)C(=O)O)c1ccc2oc3ccccc3c2c1 [Example 2, (R)-4-Dibenzofuran-2-yl-4-oxo-2-(2,2,2-trifluoroacetylamino)-butyric acid]	78	44000	–	–	–	–
CC(=O)N[C@@H](CC(=O)c1ccc2oc3ccccc3c2c1)C(=O)O [Example 4, (S)-2-Acetylamino-4-dibenzofuran-2-yl-4-oxo-butyric acid]	1.6	–	–	–	–	–
CC(C)c1cccc(C(C)C)c1NC(=O)N[C@@H](CC(=O)c1ccc2oc3ccccc3c2c1)C(=O)O [Example 5, (S)-4-Dibenzofuran-2-yl-2-[3-(2,6-diisopropyl-phenyl)-ureido]-4-oxo-butyric acid]	1.7	320	–	–	–	–
O=C(C[C@H](NC(=O)c1ccccc1)C(=O)O)c1ccc2oc3ccccc3c2c1 [Example 6, (S)-2-Benzoylamino-4-dibenzofuran-2-yl-4-oxo-butyric acid]	0.91	180	–	–	–	–
O=C(CCc1ccccc1)N[C@@H](CC(=O)c1ccc2oc3ccccc3c2c1)C(=O)O [Example 8, (S)-4-Dibenzofuran-2-yl-4-oxo-2-(3-phenylpropionylamino)-butyric acid]	0.29	67	1.3	–	–	–
O=C(CCCCCCc1ccccc1)N[C@@H](CC(=O)c1ccc2oc3ccccc3c2c1)C(=O)O [Example 9, (S)-4-Dibenzofuran-2-yl-4-oxo-2-(7-phenylheptanoylamino)-butyric acid]	3.9	510	–	–	–	–
O=C(C[C@H](NC(=O)c1ccc(-c2ccccc2)cc1)C(=O)O)c1ccc2oc3ccccc3c2c1 [Example 10, (S)-2-[(Biphenyl-4-carbonyl)-amino]-4-dibenzofuran-2-yl-4-oxo-butyric acid]	9.4	1640	–	–	–	–
CCCCCCCC(=O)N[C@@H](CC(=O)c1ccc2oc3ccccc3c2c1)C(=O)O [Example 11, (S)-4-Dibenzofuran-2-yl-4-oxo-2-(octanoylamino)-butyric acid]	2.7	360	6.8	–	–	–
CCCCCCCCCCCC(=O)N[C@@H](CC(=O)c1ccc2oc3ccccc3c2c1)C(=O)O [Example 12, (S)-4-Dibenzofuran-2-yl-4-oxo-2-(dodecanoylamino)-butyric acid]	4	8800	–	–	–	–
CS(=O)(=O)N[C@@H](CC(=O)c1ccc2oc3ccccc3c2c1)C(=O)O [Example 13, (S)-4-Dibenzofuran-2-yl-4-oxo-2-methanesulfonylamino-butyric acid]	9.2	280	–	–	–	–
O=C(C[C@H](NC(=O)C(F)(F)F)C(=O)O)c1ccc2c(c1)Cc1ccccc1-2 [Example 15, (S)-4-(9H-fluoren-2-yl)-4-oxo-2-(2,2,2-trifluoroacetylamino)-butyric acid]	76.5	12500	–	–	–	–
O=C(O)[C@H](CC(=NO)c1ccc2oc3ccccc3c2c1)NC(=O)C(F)(F)F [Example 16, (S)-4-Dibenzofuran-2-yl-4-hydroxyimino-2-(2,2,2-trifluoroacetylamino)-butyric acid]	6.6	720	2.4	–	–	–
O=C(CC(NC(=O)C(c1ccccc1)c1ccccc1)C(=O)O)c1ccc2oc3ccccc3c2c1 (stereo not drawn) [Example 18, 4-Dibenzofuran-2-yl-2-diphenylacetylamino-4-oxo-butyric acid]	0.36	100	1.1	–	–	–
O=C(COc1ccc(Cl)cc1)NC(CC(=O)c1ccc2oc3ccccc3c2c1)C(=O)O (stereo not drawn) [Example 19, 2-[2-(4-Chloro-phenoxy)-acetylamino]-4-dibenzofuran-2-yl-4-oxo-butyric acid]	3.1	640	46	–	–	–
O=C(CC(NC(=O)c1ccc(Cl)c(Cl)c1)C(=O)O)c1ccc2oc3ccccc3c2c1 (stereo not drawn) [Example 20]	7	1300	38	–	–	–
COc1ccc(CC(=O)NC(CC(=O)c2ccc3oc4ccccc4c3c2)C(=O)O)cc1OC (stereo not drawn) [Example 21, 4-Dibenzofuran-2-yl-2-[2-(3,4-dimethoxy-phenyl)-acetylamino] -4-oxo-butyric acid]	2.4	320	16	–	–	–

SMILES	IC50 (MMP-3 (stromelysin); [1]) [µM]	IC50 (MMP-2 (Gelatinase A); [2]) [nM]	IC50 (MMP-13 (Collagenase 3); [3]) [µM]	IC50 (MMP-3 (stromelysin)) [µM]	IC50 (MMP-2 (Gelatinase A)) [nM]	IC50 (MMP-13 (Collagenase 3)) [µM]
O=C(CC(NC(=O)c1ccc2ccccc2c1)C(=O)O)c1ccc2oc3ccccc3c2c1 (stereo not drawn) [Example 22, 4-Dibenzofuran-2-yl-2-[(naphthalene-2-carbonyl)-amino] -4-oxo-butyric acid]	6.9	1700	28	–	–	–
CCCC(C)(C)C(=O)NC(CC(=O)c1ccc2oc3ccccc3c2c1)C(=O)O (stereo not drawn) [Example 23, 4-Dibenzofuran-2-yl-2-(2,2-dimethyl-pentanoylamino)-4-oxo-butyric acid]	0.76	170	5.6	–	–	–
O=C(CC(NC(=O)c1ccncc1)C(=O)O)c1ccc2oc3ccccc3c2c1 (stereo not drawn) [Example 24, 4-Dibenzofuran-2-yl-4-oxo-2-[(pyridine-4-carbonyl)-amino]-butyric acid]	13	3200	41	–	–	–
O=C(C=Cc1ccccc1)NC(CC(=O)c1ccc2oc3ccccc3c2c1)C(=O)O (stereo not drawn) [Example 25, 4-Dibenzofuran-2-yl-4-oxo-2-(3-phenyl-acryloylamino)-butyric acid]	0.8	110	8.4	–	–	–
O=C(CC(NC(=O)C12CC3CC(CC(C3)C1)C2)C(=O)O)c1ccc2oc3ccccc3c2c1 (stereo not drawn) [Example 26, 2-[(Adamantane-1-carbonyl)-amino]-4-dibenzofuran-2-yl-4-oxo-butyric acid]	9.2	2100	40	–	–	–
O=C(CC(NC(=O)C(F)(F)C(F)(F)C(F)(F)C(F)(F)C(F)(F)C(F)(F)C(F)(F)F)C(=O)O)c1ccc2oc3ccccc3c2c1 (stereo not drawn) [Example 27, 4-Dibenzofuran-2-yl-4-oxo-2-(2,2,3,3,4,4,5,5,6,6,7,7,8,8,8-pentadecafluoro-octanoylamino)-butyric acid]	–	–	–	18	4600	77
O=C(COc1ccccc1)NC(CC(=O)c1ccc2oc3ccccc3c2c1)C(=O)O (stereo not drawn) [Example 28, 4-Dibenzofuran-2-yl-4-oxo-2-(2-phenoxy-acetylamino)-butyric acid]	0.51	180	12	–	–	–
Cc1ccc(C(=O)NC(CC(=O)c2ccc3oc4ccccc4c3c2)C(=O)O)cc1 (stereo not drawn) [Example 29, 4-Dibenzofuran-2-yl-2-(4-methyl-benzoylamino)-4-oxo-butyric acid]	0.39	–	5.2	–	–	–
O=C(CCCc1ccc(Br)cc1)NC(CC(=O)c1ccc2oc3ccccc3c2c1)C(=O)O (stereo not drawn) [Example 31, 2-[4-(4-Bromo-phenyl)-butyrylamino]-4-dibenzofuran-2-yl-4-oxo-butyric acid]	5.3	600	25	–	–	–
O=C(COCc1ccccc1)NC(CC(=O)c1ccc2oc3ccccc3c2c1)C(=O)O (stereo not drawn) [Example 32, 2-(2-Benzyloxy-acetylamino)-4-dibenzofuran-2-yl-4-oxo-butyric acid]	0.33	41	3.5	–	–	–
CCCCCCC(=O)NC(CC(=O)c1ccc2oc3ccccc3c2c1)C(=O)O (stereo not drawn) [Example 33, 4-Dibenzofuran-2-yl-2-heptanoylamino-4-oxo-butyric acid]	0.64	60	4.7	–	–	–
CCCCc1ccc(C(=O)NC(CC(=O)c2ccc3oc4ccccc4c3c2)C(=O)O)cc1 (stereo not drawn) [Example 34, 2-(4-Butyl-benzoylamino)-4-dibenzofuran-2-yl-4-oxo-butyric acid]	5.4	870	49	–	–	–
N#Cc1ccc(C(=O)NC(CC(=O)c2ccc3oc4ccccc4c3c2)C(=O)O)cc1 (stereo not drawn) [Example 35, 2-(4-Cyano-benzoylamino)-4-dibenzofuran-2-yl-4-oxo-butyric acid]	1.1	110	11	–	–	–
O=C(CC(NC(=O)c1sccc1Cl)C(=O)O)c1ccc2oc3ccccc3c2c1 (stereo not drawn) [Example 36, 2-[(3-Chloro-thiophene-2-carbonyl)-amino)-4-dibenzofuran-2-yl-4-oxo-butyric acid]	1	140	13	–	–	–
O=C(CC(NC(=O)c1c(F)c(F)c(F)c(F)c1F)C(=O)O)c1ccc2oc3ccccc3c2c1 (stereo not drawn) [Example 40, 4-Dibenzofuran-2-yl-4-oxo-2-(2,3,4,5,6-pentafluoro-benzoylamino)-butyric acid]	28	5200	–	–	–	–
